Source: US4863902A, “Treatment of cancer” (Wakunaga Seiyaku Kabushiki Kaisha, priority 1985, dated 1989)

Tests used:
[1] = test system: Colon adenocarcinoma 26 (mouse colon adenocarcinoma); test: Tumor weight of transplanted Colon adenocarcinoma 26 in BALB/c mice; type: in vivo; conditions: Table 5, 5-FU 150 mg/Kg, hEGF-II 100 μg/Kg subcutaneous, average ± standard error of 6-12 mice
Experimental: After BALB/c mice were preliminarily fed in a thermostat (23°±0.5° C.), humidistat (60±5%) room for 1 week, those which appear to be healthy weighing 18-20 g were provided for the present experiment in 6-12 mice per 1 group.
Colon adenocarcinoma 26 (mouse colon adenocarcinoma) was minced into pieces and about 0.1 to 0.2 ml thereof was transplanted subcutaneously on the right side of mouse abdomen by a cell transplanting needle (trocker). Six days after transplantation, the size of tumor, namely longer diameter (a mm) and shorter diameter (b mm) of tumor were measured and the tumor weight was calculated according to the formula shown below [Instruction 14 (NCI) 1980].
(§1) Tumor weight (mg)=ab^2 /2
Before carrying out experiments, tumor weights were measured immediately before administration of the compounds and the mice were grouped into 3 groups by use of random numbers so that there may be no difference in average value of the tumor weights on initiation of experiments between the respective groups to make even the average values of tumor weights of the respective groups, and thereafter the compounds were administered to the respective groups.
In this FIGURE, the axis of abscissa indicates the experimental days with the day of compound administration being the day 1, and the axis of ordinate indicates tumor cell growth ratio which is the ratio of the tumor weight after elapse of the respective days relative to the tumor weight on the day 1 as being 100%.

[2] = test system: Colon adenocarcinoma 38 (mouse colon adenocarcinoma); test: Tumor weight of transplanted Colon adenocarcinoma 38 in C57BL/6 mice; type: in vivo; conditions: for Tumor weight (day 1 = 100): 5-FU 150 mg/Kg
Experimental: Colon adenocarcinoma 38 (mouse colon adenocarcinoma) was minced into pieces and about 0.1 to 0.2 ml thereof was transplanted subcutaneously on the right side of mouse abdomen by a cell transplanting needle (trocker). Eleven days after transplantation, the size of tumor, namely longer diameter (a mm) and shorter diameter (b mm) of tumor were measured and the tumor weight was calculated according to the formula shown below [Instruction 14 (NCI) 1980].
as §1
In the Table, days indicate the experimental days with the day of compound administration being as the day 1, and the tumor weight immediately before administration of compound of day 1 is made 100. The respective values show the average value ± standard error of case numbers of 10 to 20, in the Table, the marks of (*), * and *** indicate the statistical significance difference of the combined administration group relative to the 5-FU single administration group (the definition of P is as defined above).

[3] = test system: P388/5-FU (mouse leukemia resistant to 5-FU); test: Tumor weight of solid tumor of 5-FU resistant mouse leukemia in CDF1 mice; type: in vivo; conditions: 5-FU 150 mg/Kg
Excerpt: CDF1 strain male mice were employed. The feeding conditions, etc., were the same as in Experimental Example 1.
Of P388 (mouse leukemia), the strain having chemical resistance to 5-FU (P388/5-FU) was previously grown in the abdomen of CDF1 mouse. Eight days after transplantation into the abdomen, ascites (containing tumor cells) were collected, diluted with a liquid medium and transplanted subcutaneously at the axilla of mouse in 3×10^6 cells per mouse. Eight days after transplantation, the size of tumor was measured according to the same method as in Example 1 (Colon 26) and the tumor weight was calculated.
The grouping operation of mouse on initiation of experiments was conducted in the same manner as in Experimental Example 1. As for administration of compounds, the same procedure as in Experimental Example 1 was used. However, the administration was effected twice on the day 1 and the day 3.

[4] = test system: mouse ovarian tumor M5076; test: Tumor weight of solid tumor of mouse ovarian tumor in BDF1 mice; type: in vivo; conditions: Table 10, 5-FU 150 mg/Kg, hEGF, [Leu^21 ]-hEGF or hEGF-II 100 μg/Kg subcutaneous, average ± standard error
Experimental: BDF1 male mice were employed. The feeding conditions were the same as in Experimental Example 1.
Mouse ovarian tumor M5076 was transplanted subcutaneously at the axialla of mouse in 1-2×10^6 cells per mouse. 12 days after transplantation, the size of tumor was measured according to the same method as in Experimental Example 1 (Colon 26) and the tumor weight was calculated.
The grouping operation on initiation of Experiments was conducted in the same manner as in Experimental Example 1. The compounds were administered in the same manner as in Experimental Example 9.
The experiment was carried out in the samme manner as in Experimental Examples 1, 7 and as in Experimental Example 17 for others.

[5] = Body weight (minus tumor weight) of Colon 26 bearing mice; type: in vivo, mouse; conditions: Experimental Example 5; 150 mg/Kg 5-FU, 100 μg/Kg hEGF subcutaneous
Experimental: That is, in Experimental Example 1, with the value of the body weight of the experimental animal immediately before administration of the drug from which the tumor weight is detracted as being 100, the ratio of the value of the total body weight of the experimental animal from which the tumor weight is detracted on the respective days after administration of the drug relative to this weight was calculated to obtain the results shown in FIG. 4. The symbols in the Figure are the same as in Experimental Example 1.

With O=c1[nH]cc(F)c(=O)[nH]1 [5-FU, 5-fluorouracil] as the compound, how does the “Tumor weight (day 1 = 100)” value ([1]; day 2) read?
The value was 121.1 ± 9.6.

What about the “Tumor weight (day 1 = 100)” value ([1]; day 3) of the same compound?
The value was 120.4 ± 7.1.

And the “Tumor weight (day 1 = 100)” value ([1]; day 4)?
The value was 124.0 ± 9.6.

What about the “Tumor weight (day 1 = 100)” value ([1]; day 5) of the same compound?
Its value is 122.5 ± 10.7.

What about the “Tumor weight (day 1 = 100)” value ([1]; day 6) of the same compound?
The value was 129.7 ± 11.5.

And the “Tumor weight (day 1 = 100)” value ([1]; day 7)?
Its value is 156.8 ± 14.1.

And the “Tumor weight (day 1 = 100)” value ([2]; Table 1, day 2, hEGF 100 μg/Kg subcutaneous on day 1, average ± standard error)?
The value was 106.3 ± 31.8.

What about the “Tumor weight (day 1 = 100)” value ([2]; Table 1, day 4, hEGF 100 μg/Kg subcutaneous on day 1, average ± standard error) of the same compound?
The value was 84.5 ± 7.0.

And the “Tumor weight (day 1 = 100)” value ([2]; Table 1, day 5, hEGF 100 μg/Kg subcutaneous on day 1, average ± standard error)?
The value was 75.4 ± 10.3.

What about the “Tumor weight (day 1 = 100)” value ([2]; Table 1, day 6, hEGF 100 μg/Kg subcutaneous on day 1, average ± standard error) of the same compound?
The value was 86.2 ± 9.5.

What about the “Tumor weight (day 1 = 100)” value ([2]; Table 1, day 7, hEGF 100 μg/Kg subcutaneous on day 1, average ± standard error) of the same compound?
Its value is 121.1 ± 13.0.

What about the “Tumor weight (day 1 = 100)” value ([2]; Table 1, day 8, hEGF 100 μg/Kg subcutaneous on day 1, average ± standard error) of the same compound?
Its value is 147.3 ± 16.0.

What about the “Tumor weight (day 1 = 100)” value ([2]; Table 1, day 9, hEGF 100 μg/Kg subcutaneous on day 1, average ± standard error) of the same compound?
The value was 210.9 ± 22.9.

What about the “Tumor weight (day 1 = 100)” value ([2]; Table 11, day 2, FGF 100 μm/10 ml/Kg subcutaneous, average ± standard error of 6-8 mice) of the same compound?
Its value is 102.6 ± 6.7.

And the “Tumor weight (day 1 = 100)” value ([2]; Table 11, day 3, FGF 100 μm/10 ml/Kg subcutaneous, average ± standard error of 6-8 mice)?
The value was 99.7 ± 7.2.

And the “Tumor weight (day 1 = 100)” value ([2]; Table 11, day 4, FGF 100 μm/10 ml/Kg subcutaneous, average ± standard error of 6-8 mice)?
The value was 94.9 ± 8.7.

And the “Tumor weight (day 1 = 100)” value ([2]; Table 11, day 5, FGF 100 μm/10 ml/Kg subcutaneous, average ± standard error of 6-8 mice)?
Its value is 158.6 ± 22.8.

What about the “Tumor weight ratio(%)” value ([2]; Table 12, day 4 after compound administration, weight before administration = 100, Tegafur 400, 5-FU 150, Mitomycin-C 5, Cisplatin 5 mg/Kg, hIGF-II 50 μg/Kg subcutaneous, average ± standard error of 8-10 mice) of the same compound?
The value was 84.5 ± 7.0%.

What about the “Tumor weight ratio(%)” value ([2]; Table 14, hTGFα 100 μg/10 ml/Kg with 5-FU, Tegafur, Mitomycin-C, Adriamycin or Cisplatin, as described for Table 12) of the same compound?
Its value is 84.6 ± 7.0%.

And the “Tumor weight ratio(%)” value ([2]; Table 15, day 4 after compound administration, hTGFβ and hEGF 100 μg/Kg with each compound having antitumor action)?
The value was 103.3 ± 15.4%.

What about the “Tumor weight % (average value ± standard error)” value ([2]; Table 20, 4 days after administration of 5-FU, 5-FU single subcutaneous) of the same compound?
The value was 93.9 ± 6.7%.

And the “Tumor weight (day 1 = 100)” value ([3]; Table 2, day 2, hEGF 100 μg/Kg subcutaneous on day 1 and day 3, average ± standard error of 9 mice)?
Its value is 126.2 ± 5.5.

What about the “Tumor weight (day 1 = 100)” value ([3]; Table 2, day 3, hEGF 100 μg/Kg subcutaneous on day 1 and day 3, average ± standard error of 9 mice) of the same compound?
Its value is 232.7 ± 15.9.

What about the “Tumor weight (day 1 = 100)” value ([3]; Table 2, day 4, hEGF 100 μg/Kg subcutaneous on day 1 and day 3, average ± standard error of 9 mice) of the same compound?
Its value is 280.0 ± 31.7.

What about the “Tumor weight (day 1 = 100)” value ([3]; Table 3, day 2, [Leu^21 ]-hEGF or hEGF-II 100 μg/Kg subcutaneous on day 1 and day 3, average ± standard error) of the same compound?
The value was 121.2 ± 10.5.

What about the “Tumor weight (day 1 = 100)” value ([3]; Table 3, day 3, [Leu^21 ]-hEGF or hEGF-II 100 μg/Kg subcutaneous on day 1 and day 3, average ± standard error) of the same compound?
Its value is 232.7 ± 15.9.

What about the “Tumor weight (day 1 = 100)” value ([3]; Table 3, day 4, [Leu^21 ]-hEGF or hEGF-II 100 μg/Kg subcutaneous on day 1 and day 3, average ± standard error) of the same compound?
Its value is 280.0 ± 31.7.

And the “Tumor weight (day 1 = 100)” value ([4]; day 2)?
The value was 114.7 ± 7.5.

What about the “Tumor weight (day 1 = 100)” value ([4]; day 3) of the same compound?
Its value is 115.2 ± 8.3.

And the “Tumor weight (day 1 = 100)” value ([4]; day 4)?
The value was 134.6 ± 8.9.

What about the “Tumor weight (day 1 = 100)” value ([4]; day 5) of the same compound?
Its value is 187.3 ± 19.3.

What about the “Tumor weight (day 1 = 100)” value ([4]; day 6) of the same compound?
Its value is 230.1 ± 29.4.

And the “body weight reduction inhibiting effect (body weight minus tumor weight, FIG. 4)” value [5]?
The value was “no inhibiting effect of weight reduction could be recognized”.
